Our source for the Ki values is US9505710B2 (priority 2015, dated 2016).

Structures can show the parent of a compound that is named as a salt.

By Ki is commonly meant a measure of affinity in units of concentration, obtained from inhibition or displacement.

The target of this experiment is BoNT/A LC1-429 (Clostridium botulinum, UniProt P0DPI1). Description: biochemical. The note with it: BoNT/A Ki (nM).
Chain of BoNT/A LC1-429 (P0DPI1 1-429, added parts left off): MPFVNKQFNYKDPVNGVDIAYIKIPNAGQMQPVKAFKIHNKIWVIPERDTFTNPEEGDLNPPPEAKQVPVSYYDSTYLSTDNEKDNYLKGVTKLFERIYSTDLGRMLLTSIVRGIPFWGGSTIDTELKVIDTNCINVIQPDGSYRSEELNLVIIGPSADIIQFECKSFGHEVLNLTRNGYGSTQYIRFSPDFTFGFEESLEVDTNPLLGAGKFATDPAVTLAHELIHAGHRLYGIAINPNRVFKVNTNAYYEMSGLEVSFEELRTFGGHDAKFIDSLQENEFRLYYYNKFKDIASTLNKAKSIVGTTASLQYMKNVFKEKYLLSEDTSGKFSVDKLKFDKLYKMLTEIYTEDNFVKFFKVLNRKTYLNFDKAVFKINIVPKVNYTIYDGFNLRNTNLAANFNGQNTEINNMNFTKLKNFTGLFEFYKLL
`CCO[C@H](CC(=O)NO)[C@H](Cc1ccc(Cl)cc1)c1ccc(C(=O)N(C)CCO)cc1` [Example 4-4, 4-((2R,3R)-1-(4-chlorophenyl)-3-ethoxy-5-(hydroxyamino)-5-oxopentan-2-yl)-N-(2-hydroxyethyl)-N-methylbenzamide] came in with a Ki of 9.8 ± 3.7 nM.
The figure for `CCO[C@H](CC(=O)NO)[C@H](Cc1ccc(Cl)cc1)c1ccc(C(=O)N2CCOCC2)cc1` [Example 4-5, (3R,4R)-5-(4-chlorophenyl)-3-ethoxy-N-hydroxy-4-(4-(morpholine-4-carbonyl)phenyl)pentanamide] is 5.8 ± 1.1 nM; for `CO[C@H](CC(=O)NO)[C@H](Cc1ccc(Cl)cc1)c1ccc(C(=O)N2CCOCC2)cc1` [Example 4-6, (3R,4R)-5-(4-chlorophenyl)-N-hydroxy-3-methoxy-4-(4-(morpholine-4-carbonyl)phenyl)pentanamide] it is 11.4 nM.
The figure for `CO[C@H](CC(=O)NO)[C@H](Cc1ccc(Cl)cc1)c1ccc(C(=O)N2CCCCC2)cc1` [Example 4-7, (3R,4R)-5-(4-chlorophenyl)-N-hydroxy-3-methoxy-4-(4-(piperidine-1-carbonyl)phenyl)pentanamide] is 5.5 nM; for `CCO[C@H](CC(=O)NO)[C@H](Cc1ccc(Cl)cc1)c1ccc(C(=O)N2CCN(C(=O)OC(C)(C)C)CC2)cc1` [Example 4-8, tert-butyl 4-(4-((2R,3R)-1-(4-chlorophenyl)-3-ethoxy-5-(hydroxyamino)-5-oxopentan-2-yl)benzoyl)piperazine-1-carboxylate] it is 22 nM; for `CCO[C@H](CC(=O)NO)[C@H](Cc1ccc(Cl)cc1)c1ccc(C(=O)N2CCNCC2)cc1` [Example 4-9, (3R,4R)-5-(4-chlorophenyl)-3-ethoxy-N-hydroxy-4-(4-(piperazine-1-carbonyl)phenyl)pentanamide] it is 9.2 ± 6.1 nM.
The value for `CCO[C@H](CC(=O)NO)[C@H](Cc1ccc(Cl)cc1)c1ccc(C(=O)N(CCO)CCO)cc1` [Example 4-10, 4-((2R,3R)-1-(4-chlorophenyl)-3-ethoxy-5-(hydroxyamino)-5-oxopentan-2-yl)-N,N-bis(2-hydroxyethyl)benzamide] was 16.7 nM.
Consider `CO[C@H](CC(=O)NO)[C@H](Cc1ccc(Cl)cc1)c1ccc(Cl)c(Br)c1` [Example 5-1, (3R,4R)-4-(3-bromo-4-chlorophenyl)-5-(4-chlorophenyl)-N-hydroxy-3-methoxypentanamide], for which the Ki amounted to 5.2 nM.
Turning to `CO[C@H](CC(=O)NO)[C@H](Cc1ccc(Cl)cc1)c1ccc(Cl)c(CN2CCCCC2)c1` [Example 5-2, (3R,4R)-4-(4-chloro-3-(piperidin-1-ylmethyl)phenyl)-5-(4-chlorophenyl)-N-hydroxy-3-methoxypentanamide], the affinity, expressed as Ki, was 3.7 nM.
The value for `CO[C@H](CC(=O)NO)[C@H](Cc1ccc(Cl)cc1)c1ccc(Cl)c(C(=O)N2CCCCC2)c1` [Example 5-3, (3R,4R)-4-(4-chloro-3-(piperidine-1-carbonyl)phenyl)-5-(4-chlorophenyl)-N-hydroxy-3-methoxypentanamide] was 13.1 nM.
Consider `CO[C@H](CC(=O)NO)[C@H](Cc1ccc(Cl)cc1)c1ccc(F)cc1F` [Example 5-4, (3R,4R)-5-(4-chlorophenyl)-4-(2,4-difluorophenyl)-N-hydroxy-3-methoxypentanamide], for which the Ki turned out to be 3.95 nM.
The figure for `CO[C@H](CC(=O)NO)[C@H](Cc1ccc(Cl)cc1)c1cc(F)c(F)c(F)c1` [Example 5-5, (3R,4R)-5-(4-chlorophenyl)-N-hydroxy-3-methoxy-4-(3,4,5-trifluorophenyl)pentanamide] is 5.36 nM; for `CO[C@H](CC(=O)NO)[C@H](Cc1ccc(Cl)cc1)c1cc(F)c(F)c(F)c1F` [Example 5-6, (3R,4R)-5-(4-chlorophenyl)-N-hydroxy-3-methoxy-4-(2,3,4,5-tetrafluorophenyl)pentanamide] it is 4.95 nM; for `CCO[C@H](CC(=O)NO)[C@H](Cc1ccc(Cl)cc1)c1ccc(Cl)cc1` [Example 6-1, (3R,4R)-4,5-bis(4-chlorophenyl)-3-ethoxy-N-hydroxypentanamide] it is 4.9 nM.
For the molecule `CO[C@H](CC(=O)NO)[C@H](Cc1ccc(Cl)cc1)c1ccc(F)cc1` [Example 6-2, (3R,4R)-5-(4-chlorophenyl)-4-(4-fluorophenyl)-N-hydroxy-3-methoxypentanamide potassium salt], the Ki stood at 13 nM.
The molecule `CCO[C@H](CC(=O)NO)[C@H](Cc1ccc(Cl)cc1)c1ccc(F)cc1` [Example 6-3, (3R,4R)-5-(4-chlorophenyl)-3-ethoxy-4-(4-fluorophenyl)-N-hydroxypentanamide potassium salt] gave a Ki of 8.9 nM.
In turn, `CO[C@H](CC(=O)NO)[C@H](Cc1ccc(Cl)cc1C)c1ccc(F)cc1` [Example 6-4, (3R,4R)-5-(4-chloro-2-methylphenyl)-4-(4-fluorophenyl)-N-hydroxy-3-methoxypentanamide] registered a Ki of 1.48 nM.
The value for `CO[C@H](CC(=O)NO)[C@H](Cc1ccc(Cl)cc1C)c1ccc(F)cc1` [Example 6-5, (3R,4R)-5-(4-chloro-2-methylphenyl)-4-(4-fluorophenyl)-N-hydroxy-3-methoxypentanamide potassium salt] was 3.88 nM; that for `CCO[C@H](CC(=O)NO)[C@H](Cc1ccc(Cl)cc1Cl)c1ccc(Br)cc1` [Example 6-6, (3R,4R)-4-(4-bromophenyl)-5-(2,4-dichlorophenyl)-3-ethoxy-N-hydroxypentanamide] was 4.9 nM; that for `CO[C@H](CC(=O)NO)[C@H](Cc1ccc(Cl)cc1)c1ccc(C(=O)N(C)C)cc1` [Example 6-7, 4-((2R,3R)-1-(4-chlorophenyl)-5-(hydroxyamino)-3-methoxy-5-oxopentan-2-yl)-N,N-dimethylbenzamide] was 26.2 nM.
The figure for `CO[C@H](CC(=O)NO)[C@H](Cc1ccc(Cl)cc1C)c1ccc(CN2CCOCC2)cc1F` [Example 6-8, (3R,4R)-5-(4-chloro-2-methylphenyl)-4-(2-fluoro-4-(morpholinomethyl)phenyl)-N-hydroxy-3-methoxypentanamide] is 45.8 nM; for `CCO[C@H](CC(=O)NO)[C@H](Cc1ccc(Cl)cc1)c1ccc(Cl)c(N2CCOCC2)c1` [Example 6-9, (3R,4R)-4-(4-chloro-3-morpholinophenyl)-5-(4-chlorophenyl)-3-ethoxy-N-hydroxypentanamide] it is 5.8 nM; for `CCO[C@H](CC(=O)NO)[C@H](Cc1ccc(Cl)cc1C)c1ccc(F)cc1F` [Example 6-10, (3R,4R)-5-(4-chloro-2-methylphenyl)-4-(2,4-difluorophenyl)-3-ethoxy-N-hydroxypentanamide] it is 10 nM.
Molecule `CCO[C@H](CC(=O)NO)[C@H](Cc1ccc(Cl)cc1)c1ccc(F)cc1F` [Example 6-11, (3R,4R)-5-(4-chlorophenyl)-4-(2,4-difluorophenyl)-3-ethoxy-N-hydroxypentanamide] displayed a Ki of 10.3 nM.
The figure for `CO[C@H](CC(=O)NO)[C@H](Cc1ccc(F)cc1F)c1ccc(F)cc1F` [Example 6-12, (3R,4R)-4,5-bis(2,4-difluorophenyl)-N-hydroxy-3-methoxypentanamide] is 29.5 nM; for `O=C(C[C@@H](OCc1ccccc1)[C@H](Cc1ccc(Cl)cc1)c1ccc(F)cc1F)NO` [Example 6-13, (3R,4R)-3-(benzyloxy)-5-(4-chlorophenyl)-4-(2,4-difluorophenyl)-N-hydroxypentanamide] it is 114 nM.
